Broadly, the ED50 is the dose that gives a 50% effect, or the effect in half of the subjects.

Counter-ions that a name gives are not always drawn. Like-named read-outs stand apart in the source and are kept apart here.

The values below come from US6177438A, “Morphinan derivatives and pharmaceutical use thereof” (priority 1993, dated 2001).

In the test the test system is acetic acid-induced writhing in ddy mice. Nature of the test: animal or person. The format is in vivo, 5 week old ddy mice. To be noted: s.c. 15 minutes before acetic acid. As to the method:
5 week old ddy mice were used in this test. After intraperitoneal administration of 0.1 ml of 0.6% aqueous acetic acid per 10 g of body weight, the number of writhing reactions that occurred in 10 minutes starting 10 minutes after administration was evaluated for the indicator. The test drug was administered subcutaneously into the backs of the animals 15 minutes before administration of acetic acid.

The mark [1] stands for this setting: Mus musculus, sc, read-out: ED50.

`CN(C(=O)CCCCc1ccccc1)[C@@H]1CC[C@@]2(O)[C@H]3Cc4ccc(O)c5c4[C@@]2(CCN3CC2CC2)[C@H]1O5` [Compound 203, 17-cyclopropylmethyl-3,14β-dihydroxy-4,5α-epoxy-6β-(N-methyl-5-phenylpentanoamido)morphinan hydrochloride]: under setting [1], the ED50 was 0.38 mg/kg.

On to `CN(C(=S)NCc1ccccc1)[C@H]1CC[C@@]2(O)[C@H]3Cc4ccc(O)c5c4[C@@]2(CCN3CC2CC2)[C@H]1O5` [Compound 133, 17-cyclopropylmethyl-3,14β-dihydroxy-4,5α-epoxy-6α-(N-methyl-N'-benzylthioureido)morphinan.cndot.tartrate], for which the ED50 under setting [1] is 0.044 mg/kg.

Consider `Cc1ccc(/C=C/C(=O)N(C)[C@@H]2CC[C@@]3(O)[C@H]4Cc5ccc(O)c6c5[C@@]3(CCN4CC3CC3)[C@H]2O6)cc1` [Compound 155, 17-cyclopropylmethyl-3,14β-dihydroxy-4,5α-epoxy-6β-(N-methyl-4-methylcinnamamido)morphinan hydrochloride], for which, under setting [1], the ED50 came to 0.012 mg/kg.

In the case of `CN(C(=O)CCC1CCCC1)[C@H]1CC[C@@]2(O)[C@H]3Cc4ccc(O)c5c4[C@@]2(CCN3CC2CC2)[C@H]1O5` [Compound 48, 17-cyclopropylmethyl-4,5α-epoxy-3,14β-dihydroxy-6α-(N-methyl-3-cyclopentylpropionamido)morphinan.cndot.tartrate], the ED50 under setting [1] is 0.019 mg/kg.

As to `Cc1ccc(C#CC(=O)N(C)[C@H]2CC[C@@]3(O)[C@H]4Cc5ccc(O)c6c5[C@@]3(CCN4CC3CC3)[C@H]2O6)cc1.Cl` [Compound 183, 17-cyclopropylmethyl-3,14β-dihydroxy-4,5α-epoxy-6α-[N-methyl-3-(4-methylphenyl)propiolamido]morphinan hydrochloride], the ED50 under setting [1] worked out at 0.013 mg/kg.

As to `CN(C(=O)/C=C\c1ccoc1)[C@@H]1CC[C@@]2(O)[C@H]3Cc4ccc(O)c5c4[C@@]2(CCN3CC2CC2)[C@H]1O5.O=C(O)C(O)C(O)C(=O)O` (relative stereo) [Compound 174, 17-cyclopropylmethyl-3,14β-dihydroxy-4,5α-epoxy-6β-[N-methyl-cis-3-(3-furyl)acrylamido]morphinan tartrate], under setting [1], the ED50 is 0.16 mg/kg.

As for `COCCOC(=O)N(C)[C@H]1CC[C@@]2(O)[C@H]3Cc4ccc(O)c5c4[C@@]2(CCN3CC2CC2)[C@H]1O5` [Compound 49, 17-cyclopropylmethyl-4,5α-epoxy-3,14β-dihydroxy-6α-(N-methyl-2-methoxyethoxycarbamido)morphinan.cndot.tartrate], the ED50 under setting [1] worked out at 0.026 mg/kg.

`CCCCN1CC[C@]23c4c5ccc(O)c4O[C@H]2[C@H](N(C)C(=O)/C=C/c2ccoc2)CC[C@@]3(O)[C@H]1C5.O=C(O)C(O)C(O)C(=O)O` (relative stereo) [Compound 163, 17-butyl-3,14β-dihydroxy-4,5α-epoxy-6β-[N-methyl-trans-3-(3-furyl)acrylamido]morphinan tartrate]: the median effective dose (ED50) under setting [1] is 0.37 mg/kg.

For the molecule `CN(C(=O)CCC1CCCC1)[C@@H]1CC[C@@]2(O)[C@H]3Cc4ccc(O)c5c4[C@@]2(CCN3CC2CC2)[C@H]1O5` [Compound 64, 17-cyclopropylmethyl-3,14β-dihydroxy-4,5α-epoxy-6β-(N-methyl-3-cyclopentylpropionamido)morphinan.cndot.tartrate], the ED50 under setting [1] came out at 0.097 mg/kg.

Take `CO[C@H](C(=O)N(C)[C@H]1CC[C@@]2(O)[C@H]3Cc4ccc(O)c5c4[C@@]2(CCN3CC2CC2)[C@H]1O5)c1ccccc1` [Compound 31, 17-cyclopropylmethyl-3,14β-dihydroxy-4,5α-epoxy-6α-[(S)-N-methylmethoxyphenylacetamido]morphinan.cndot.hydrochloride]: under setting [1], the ED50 was determined as 0.75 mg/kg.

Turning to `CC(=O)Oc1ccc2c3c1O[C@H]1[C@@H](N(C)C(=O)Cc4ccc(Cl)c(Cl)c4)CC[C@@]4(O)[C@@H](C2)N(CC2CC2)CC[C@]314` [Compound 139, 17-Cyclopropylmethyl-3-acetoxy-4,5α-epoxy-14β-hydroxy-6α-(N-methyl-3,4-dichlorophenylacetamido)morphinan.cndot.hydrochloride], the ED50 under setting [1] was found to be 0.04 mg/kg.

On to `CN(C(=O)/C=C/c1ccc(Cl)c(Cl)c1)[C@@H]1CC[C@@]2(O)[C@H]3Cc4ccc(O)c5c4[C@@]2(CCN3CC2CC2)[C@H]1O5` [Compound 179, 17-cyclopropylmethyl-3,14β-dihydroxy-4,5α-epoxy-6β-(N-methyl-3,4-dichlorocinnamamido)morphinan hydrochloride], for which, under setting [1], the ED50 was 0.0028 mg/kg.

For the molecule `COc1ccc(C#CC(=O)N(C)[C@@H]2CC[C@@]3(O)[C@H]4Cc5ccc(O)c6c5[C@@]3(CCN4CC3CC3)[C@H]2O6)cc1.Cl` [Compound 176, 17-cyclopropylmethyl-3,14β-dihydroxy-4,5α-epoxy-6β-[N-methyl-3-(4-methoxyphenyl)propiolamido]morphinan hydrochloride], the ED50 under setting [1] turned out to be 0.11 mg/kg.

As to `CN(C(=O)Cc1cccc(N=C=S)c1)[C@H]1CC[C@@]2(O)[C@H]3Cc4ccc(O)c5c4[C@@]2(CCN3CC2CC2)[C@H]1O5` [Compound 149, 17-cyclopropylmethyl-3,14β-dihydroxy-4,5α-epoxy-6α-(N-methyl-3-isothiocyanatophenylacetamido)morphinanan.cndot.methanesulfonate], under setting [1], the ED50 is 0.013 mg/kg.

Regarding `Cc1ccc(/C=C/C(=O)N(C)[C@@H]2CC[C@@]3(O)[C@H]4Cc5ccc(O)c6c5[C@@]3(CCN4CC3CC3)[C@H]2O6)s1.O=C(O)C(O)C(O)C(=O)O` (relative stereo) [Compound 160, 17-cyclopropylmethyl-3,14β-dihydroxy-4,5α-epoxy-6β-[N-methyl-trans-3-(5-methyl-2-thienyl)acrylamido]morphinan tartrate], the ED50 was 0.0027 mg/kg.

For the molecule `CN(C(=O)Cc1cccc(N)c1)[C@H]1CC[C@@]2(O)[C@H]3Cc4ccc(O)c5c4[C@@]2(CCN3CC2CC2)[C@H]1O5` [Compound 138, 17-Cyclopropylmethyl-3,14β-dihydroxy-4,5α-epoxy-6α-(N-methyl-3-aminophenylacetamido)morphinan.cndot.1.1 tartrate], the ED50 under setting [1] was determined as 0.014 mg/kg.

`CN(C(=O)CC1CCCCC1)[C@H]1CC[C@@]2(O)[C@H]3Cc4ccc(O)c5c4[C@@]2(CCN3CC2CC2)[C@H]1O5` [Compound 85]: under setting [1], the ED50 amounted to 0.113 mg/kg.

As for `CN(C(=O)Cc1ccc([N+](=O)[O-])cc1)[C@H]1CC[C@@]2(O)[C@H]3Cc4ccc(O)c5c4[C@@]2(CCN3CC2CC2)[C@H]1O5` [Compound 87, 17-cyclopropylmethyl-3,14β-dihydroxy-4,5α-epoxy-6α-(N-methyl-4-nitrophenylacetamido)morphinan.cndot.hydrochloride], under setting [1], the ED50 is 0.027 mg/kg.

Regarding `CN(C(=O)Cc1cccc(Br)c1)[C@H]1CC[C@@]2(O)[C@H]3Cc4ccc(O)c5c4[C@@]2(CCN3CC2CC2)[C@H]1O5` [Compound 26, 17-cyclopropylmethyl-3,14β-dihydroxy-4,5α-epoxy-6α-(N-methyl-3-bromophenylacetamido)morphinan.cndot.hydrobromate], the ED50 under setting [1] was 0.099 mg/kg.

On to `C/C(=C\C(=O)N(C)[C@@H]1CC[C@@]2(O)[C@H]3Cc4ccc(O)c5c4[C@@]2(CCN3CC2CC2)[C@H]1O5)c1ccccc1` [Compound 162, 17-cyclopropylmethyl-3,14β-dihydroxy-4,5α-epoxy-6β-(N-methyl-γ-methylcinnamamido)morphinan tartrate], for which, under setting [1], the ED50 was found to be 0.018 mg/kg.

`COCCOC(=O)N(C)[C@@H]1CC[C@@]2(O)[C@H]3Cc4ccc(O)c5c4[C@@]2(CCN3CC2CC2)[C@H]1O5` [Compound 67, 17-cyclopropylmethyl-3,14β-dihydroxy-4,5α-epoxy-6β-(N-methyl-2-methoxyethoxycarbamido)morphinan.cndot.tartrate]: the ED50 under setting [1] was determined as 0.36 mg/kg.

Take `CC(=O)O[C@@]12CC[C@@H](N(C)C(=O)/C=C/c3ccccc3)[C@@H]3Oc4c(O)ccc5c4[C@@]31CCN(CC1CC1)[C@@H]2C5` [Compound 144, 17-Cyclopropylmethyl-3-hydroxy-14β-acetoxy-4,5α-epoxy-6β-(N-methylcinnamamido)morphinan.cndot.tartrate]: the ED50 under setting [1] was 0.024 mg/kg.

Regarding `CN(C(=O)Cc1cccc2sccc12)[C@H]1CC[C@@]2(O)[C@H]3Cc4ccc(O)c5c4[C@@]2(CCN3CC2CC2)[C@H]1O5` [Compound 106, 17-cyclopropylmethyl-3,14β-dihydroxy-4,5α-epoxy-6α-(N-methyl-4-benzo[b]thienylacetamido)morphinan.cndot.hydrochloride], under setting [1], the 50% effective dose (ED50) was found to be 0.25 mg/kg.

As to `CN(C(=O)/C=C/c1cccnc1)[C@@H]1CC[C@@]2(O)[C@H]3Cc4ccc(O)c5c4[C@@]2(CCN3CC2CC2)[C@H]1O5.O=C(O)C(O)C(O)C(=O)O` (relative stereo) [Compound 153, 17-cyclopropylmethyl-3,14β-dihydroxy-4,5α-epoxy-6β-[N-methyl-trans-3-(3-pyridyl)acrylamido]morphinan tartrate], the ED50 under setting [1] is 0.13 mg/kg.

Consider `CN(C(=S)NCc1ccccc1)[C@@H]1CC[C@@]2(O)[C@H]3Cc4ccc(O)c5c4[C@@]2(CCN3CC2CC2)[C@H]1O5` [Compound 134, 17-cyclopropylmethyl-3,14β-dihydroxy-4,5α-epoxy-6β-(N-methyl-N'-benzylthioureido)morphinan.cndot.tartrate], for which, under setting [1], the ED50 came out at 0.15 mg/kg.

As to `CN(C(=O)COc1c(Cl)cc(Cl)cc1Cl)[C@@H]1CC[C@@]2(O)[C@H]3Cc4ccc(O)c5c4[C@@]2(CCN3CC2CC2)[C@H]1O5.Cl` [Compound 199, 17-cyclopropylmethyl-3,14β-dihydroxy-4,5α-epoxy-6β-(N-methyl-2,4,6-trichlorophenoxyacetamido)morphinan hydrochloride], under setting [1], the median effective dose (ED50) was found to be 0.017 mg/kg.

As for `CN(C(=O)/C=C/c1ccoc1)[C@@H]1CC[C@@]2(O)[C@H]3Cc4cccc5c4[C@@]2(CCN3CC2CC2)[C@H]1O5` [Compound 204, 17-cyclopropylmethyl-4,5α-epoxy-14-hydroxy-6β-[N-methyl-trans-3-(3-furan)acrylamido]morphinan hydrochloride], the ED50 under setting [1] was 0.013 mg/kg.
